Literature values as cited in US20070015686A1, “Dietary supplement for enhancing skeletal muscle mass, decreasing muscle protein degradation, downregulation of muscle catabolism pathways, and decreasing catabolism of muscle cells” (priority 2005, published 2007).

What was measured:
[1] = ingestion of a concomitant carbohydrate
[2] = target: T1, chymotrypsin-like activity of the proteasome complex (Homo sapiens, UniProt P28074); conditions: in vitro and in vivo; concentrations found in the serum of green tea drinkers
T1 sequence (P28074 60-263): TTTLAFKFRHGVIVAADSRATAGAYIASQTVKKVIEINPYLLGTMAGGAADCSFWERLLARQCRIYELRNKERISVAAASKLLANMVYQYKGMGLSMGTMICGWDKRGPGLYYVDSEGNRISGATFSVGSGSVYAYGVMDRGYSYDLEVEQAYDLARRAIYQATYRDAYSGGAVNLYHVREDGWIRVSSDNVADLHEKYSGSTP

[3] = laboratory tests; greater than vitamin C and vitamin E
[4] = test system: NF-κβ; conditions: following administration, during inflammation and infection
[5] = test system: pancreatic β-cells

Compound: CN(CC(=O)O)C(=N)N [Creatine, N-methyl-N-guanyl Glycine]
- Creatine retention, increased efficiency [1]: up to 60%

Compound: O=C(O[C@@H]1Cc2c(O)cc(O)cc2O[C@@H]1c1ccc(O)c(O)c1)c1cc(O)c(O)c(O)c1 [ECG, epicatechin gallate]
- inhibition of the chymotrypsin-like activity of the proteasome complex [2]: potent specific inhibitors

Compound: O=C(O[C@@H]1Cc2c(O)cc(O)cc2O[C@@H]1c1cc(O)c(O)c(O)c1)c1cc(O)c(O)c(O)c1 [EGCG, epigallocatechin gallate]
- inhibition of the chymotrypsin-like activity of the proteasome complex [2]: potent specific inhibitors
- antioxidant activity [3]: potent antioxidant activity

Compound: CC1=C(/C=C/C(C)=C/C=C/C(C)=C/C=C/C=C(C)/C=C/C=C(C)/C=C/C2=C(C)C(=O)[C@@H](O)CC2(C)C)C(C)(C)C[C@H](O)C1=O [astaxanthin]
- NF-κβ activation / nuclear translocation [4]: decreased NF-κβ activation

Compound: CC(C)=C[C@H]1C[C@](O)([C@H]2CC[C@]3(C)[C@H]2CCC2[C@@]4(C)CC[C@H](O[C@@H]5OC[C@@H](O)[C@H](O[C@@H]6O[C@H](CO)[C@@H](O)[C@H](O)[C@H]6O)[C@@H]5O[C@H]5O[C@H](C)[C@@H](O)[C@H](O)[C@@H]5O)C(C)(C)C4CC[C@]23C)[C@H](O)O1 (stereo partly shown) [phanoside]
- insulin-releasing activity [5]: potent insulin-releasing activity

Compound: O=C(OC[C@H]1O[C@@H](OC(=O)c2cc(O)c(O)c(OC(=O)c3cc(O)c(O)c(O)c3)c2)[C@H](OC(=O)c2cc(O)c(O)c(OC(=O)c3cc(O)c(O)c(O)c3)c2)[C@@H](OC(=O)c2cc(O)c(O)c(OC(=O)c3cc(O)c(O)c(O)c3)c2)[C@@H]1OC(=O)c1cc(O)c(O)c(OC(=O)c2cc(O)c(O)c(O)c2)c1)c1cc(O)c(O)c(OC(=O)c2cc(O)c(O)c(O)c2)c1 [tannic acid]
- inhibition of the chymotrypsin-like activity of the proteasome complex [2]: potent specific inhibitors
